Experimental data published in patent US11498899B2, “Nitrone herbicides” (FMC Corporation, priority 2016, dated 2022).

Assays:
[1] = system: barnyardgrass (Echinochloa crus-galli); experiment: Test A preemergence, visual injury rating 0-100 (0 no effect, 100 complete control); assay type: in vivo; conditions: for Barnyardgrass plant response rating (0 to 100 scale): 125 g ai/ha; for Barnyardgrass plant response rating: 500 g ai/ha, 0 to 100 scale
From the text: (§1) Seeds of plant species selected from barnyardgrass (Echinochloa crus-galli), kochia (Kochia scoparia), ragweed (common ragweed, Ambrosia elatior), ryegrass, Italian (Italian ryegrass, Lolium multiflorum), foxtail, giant (giant foxtail, Setaria faberii), foxtail, green (green foxtail, Setaria viridis), and pigweed (Amaranthus retroflexus) were planted into a blend of loam soil and sand and treated preemergence with a directed soil spray using test chemicals formulated in a non-phytotoxic solvent mixture which included a surfactant.
(§2) At the same time, plants selected from these weed species and also wheat (Triticum aestivum), corn (Zea mays), blackgrass (Alopecurus myosuroides), and galium (catchweed bedstraw, Galium aparine) were planted in pots containing the same blend of loam soil and sand and treated with postemergence applications of test chemicals formulated in the same manner. Plants ranged in height from 2 to 10 cm and were in the one- to two-leaf stage for the postemergence treatment. Treated plants and untreated controls were maintained in a greenhouse for approximately 10 days, after which time all treated plants were compared to untreated controls and visually evaluated for injury. […] A dash (-) response means no test result.

[2] = system: foxtail, giant (giant foxtail, Setaria faberii); experiment: Test A preemergence, visual injury rating 0-100; assay type: in vivo; conditions: for Foxtail, Giant plant response rating (0 to 100 scale): 125 g ai/ha; for Foxtail, Giant plant response rating: 500 g ai/ha, 0 to 100 scale
From the text: as §1, §2

kochia (Kochia scoparia) [3] = experiment: Test A preemergence, visual injury rating 0-100; assay type: in vivo; conditions: for Kochia plant response rating (0 to 100 scale): 125 g ai/ha; for Kochia plant response rating: 500 g ai/ha, 0 to 100 scale
From the text: as §1, §2

[4] = system: pigweed (Amaranthus retroflexus); experiment: Test A preemergence, visual injury rating 0-100; assay type: in vivo; conditions: for Pigweed plant response rating (0 to 100 scale): 125 g ai/ha; for Pigweed plant response rating: 500 g ai/ha, 0 to 100 scale
From the text: as §1, §2

[5] = system: ragweed (common ragweed, Ambrosia elatior); experiment: Test A preemergence, visual injury rating 0-100; assay type: in vivo; conditions: for Ragweed plant response rating (0 to 100 scale): 125 g ai/ha; for Ragweed plant response rating: 500 g ai/ha, 0 to 100 scale
From the text: as §1, §2

[6] = system: ryegrass, Italian (Italian ryegrass, Lolium multiflorum); experiment: Test A preemergence, visual injury rating 0-100; assay type: in vivo; conditions: for Ryegrass, Italian plant response rating (0 to 100 scale): 125 g ai/ha; for Ryegrass, Italian plant response rating: 500 g ai/ha, 0 to 100 scale
From the text: as §1, §2

[7] = system: barnyardgrass (Echinochloa crus-galli); experiment: Test A postemergence, visual injury rating 0-100; assay type: in vivo; conditions: 0 to 100 scale
From the text: as §1, §2

[8] = system: blackgrass (Alopecurus myosuroides); experiment: Test A postemergence, visual injury rating 0-100; assay type: in vivo; conditions: 0 to 100 scale
From the text: as §1, §2

corn (Zea mays) = experiment: Test A postemergence, visual injury rating 0-100; assay type: in vivo; conditions: 0 to 100 scale
From the text: as §1, §2

[9] = system: foxtail, giant (giant foxtail, Setaria faberii); experiment: Test A postemergence, visual injury rating 0-100; assay type: in vivo; conditions: 0 to 100 scale
From the text: as §1, §2

[10] = system: galium (catchweed bedstraw, Galium aparine); experiment: Test A postemergence, visual injury rating 0-100; assay type: in vivo; conditions: 0 to 100 scale
From the text: as §1, §2

kochia (Kochia scoparia) [11] = experiment: Test A postemergence, visual injury rating 0-100; assay type: in vivo; conditions: 0 to 100 scale
From the text: as §1, §2

[12] = system: pigweed (Amaranthus retroflexus); experiment: Test A postemergence, visual injury rating 0-100; assay type: in vivo; conditions: 0 to 100 scale
From the text: as §1, §2

[13] = system: ragweed (common ragweed, Ambrosia elatior); experiment: Test A postemergence, visual injury rating 0-100; assay type: in vivo; conditions: 0 to 100 scale
From the text: as §1, §2

[14] = system: ryegrass, Italian (Italian ryegrass, Lolium multiflorum); experiment: Test A postemergence, visual injury rating 0-100; assay type: in vivo; conditions: 0 to 100 scale
From the text: as §1, §2

[15] = system: wheat (Triticum aestivum); experiment: Test A postemergence, visual injury rating 0-100; assay type: in vivo; conditions: 0 to 100 scale
From the text: as §1, §2

[16] = system: ducksalad (Heteranthera limosa); experiment: Test B flooded paddy test, visual rating 0-100; conditions: Flood, 250 g ai/ha, applied to paddy water, rated after 13 to 15 days
[17] = system: barnyardgrass (Echinochloa crus-galli); experiment: Test B flooded paddy test, visual rating 0-100; conditions: Flood, 250 g ai/ha, applied to paddy water, rated after 13 to 15 days
rice (Oryza sativa) = experiment: Test B flooded paddy test, visual rating 0-100 (0 no effect, 100 complete control); conditions: Flood, 250 g ai/ha, applied to paddy water, rated after 13 to 15 days

| SMILES | Barnyardgrass plant response rating (0 to 100 scale) [1] | Barnyardgrass plant response rating [1] | Foxtail, Giant plant response rating (0 to 100 scale) [2] | Foxtail, Giant plant response rating [2] | Kochia plant response rating (0 to 100 scale) (kochia (Kochia scoparia) [3]) | Kochia plant response rating (kochia (Kochia scoparia) [3]) | Pigweed plant response rating (0 to 100 scale) [4] | Pigweed plant response rating [4] | Ragweed plant response rating (0 to 100 scale) [5] | Ragweed plant response rating [5] | Ryegrass, Italian plant response rating (0 to 100 scale) [6] | Ryegrass, Italian plant response rating [6] | Barnyardgrass plant response rating ([7]; 125 g ai/ha) | Barnyardgrass plant response rating ([7]; 500 g ai/ha) | Blackgrass plant response rating ([8]; 125 g ai/ha) | Blackgrass plant response rating ([8]; 500 g ai/ha) | Corn plant response rating (corn (Zea mays); 125 g ai/ha) | Corn plant response rating (corn (Zea mays); 500 g ai/ha) | Foxtail, Giant plant response rating ([9]; 125 g ai/ha) | Foxtail, Giant plant response rating ([9]; 500 g ai/ha) | further results |
| --- | --- | --- | --- | --- | --- | --- | --- | --- | --- | --- | --- | --- | --- | --- | --- | --- | --- | --- | --- | --- | --- |
| CC1=[N+]([O-])C(C(=O)Nc2cccc(F)c2F)C(c2ccccc2C)C1 (racemic) [Compound 11] | 80 | 100 | 90 | 100 | 0 | 0 | 0 | 0 | 40 | 30 | 0 | 0 | 40 | 90 | 0 | 0 | 0 | 0 | 30 | 90 | Galium plant response rating ([10]; 125 g ai/ha): 0; Galium plant response rating ([10]; 500 g ai/ha): 20; Kochia plant response rating (kochia (Kochia scoparia) [11]; 125 g ai/ha): 0; Kochia plant response rating (kochia (Kochia scoparia) [11]; 500 g ai/ha): 0; Pigweed plant response rating ([12]; 125 g ai/ha): 0; Pigweed plant response rating ([12]; 500 g ai/ha): 0; Ragweed plant response rating ([13]; 125 g ai/ha): 0; Ragweed plant response rating ([13]; 500 g ai/ha): 0; Ryegrass, Italian plant response rating ([14]; 125 g ai/ha): 0; Ryegrass, Italian plant response rating ([14]; 500 g ai/ha): 0; Wheat plant response rating ([15]; 125 g ai/ha): 0; Wheat plant response rating ([15]; 500 g ai/ha): 20; Ducksalad plant response rating (0 to 100 scale) [16]: 100; Barnyardgrass plant response rating (0 to 100 scale) [17]: 90; Rice plant response rating (0 to 100 scale) (rice (Oryza sativa)): 15 |
| CC1=[N+]([O-])C(C(=O)Nc2cccc(F)c2F)C(c2cccc(C(C)C)c2)C1 (racemic) [Compound 12] | 100 | 100 | 100 | 100 | 0 | 50 | 0 | 30 | 0 | 90 | 0 | 90 | 10 | 90 | 0 | 50 | 50 | 90 | 90 | 90 | Galium plant response rating ([10]; 125 g ai/ha): 50; Galium plant response rating ([10]; 500 g ai/ha): 70; Kochia plant response rating (kochia (Kochia scoparia) [11]; 125 g ai/ha): 0; Kochia plant response rating (kochia (Kochia scoparia) [11]; 500 g ai/ha): 30; Pigweed plant response rating ([12]; 125 g ai/ha): 0; Pigweed plant response rating ([12]; 500 g ai/ha): 20; Ragweed plant response rating ([13]; 125 g ai/ha): 0; Ragweed plant response rating ([13]; 500 g ai/ha): 40; Ryegrass, Italian plant response rating ([14]; 125 g ai/ha): 0; Ryegrass, Italian plant response rating ([14]; 500 g ai/ha): 50; Wheat plant response rating ([15]; 125 g ai/ha): 20; Wheat plant response rating ([15]; 500 g ai/ha): 70; Ducksalad plant response rating (0 to 100 scale) [16]: 80; Barnyardgrass plant response rating (0 to 100 scale) [17]: 70; Rice plant response rating (0 to 100 scale) (rice (Oryza sativa)): 0 |
| CC1=[N+]([O-])C(C(=O)Nc2cccc(F)c2F)C(c2c(F)cccc2Cl)C1 (racemic) [Compound 14] | 0 | 0 | 0 | 0 | 0 | 0 | 0 | 0 | 0 | 0 | 0 | 0 | 0 | 0 | 0 | 0 | 0 | 0 | 0 | 0 | Galium plant response rating ([10]; 125 g ai/ha): 0; Galium plant response rating ([10]; 500 g ai/ha): 0; Kochia plant response rating (kochia (Kochia scoparia) [11]; 125 g ai/ha): 0; Kochia plant response rating (kochia (Kochia scoparia) [11]; 500 g ai/ha): 0; Pigweed plant response rating ([12]; 125 g ai/ha): 0; Pigweed plant response rating ([12]; 500 g ai/ha): 0; Ragweed plant response rating ([13]; 125 g ai/ha): 0; Ragweed plant response rating ([13]; 500 g ai/ha): 0; Ryegrass, Italian plant response rating ([14]; 125 g ai/ha): 0; Ryegrass, Italian plant response rating ([14]; 500 g ai/ha): 0; Wheat plant response rating ([15]; 125 g ai/ha): 0; Wheat plant response rating ([15]; 500 g ai/ha): 0; Ducksalad plant response rating (0 to 100 scale) [16]: 20; Barnyardgrass plant response rating (0 to 100 scale) [17]: 40; Rice plant response rating (0 to 100 scale) (rice (Oryza sativa)): 0 |
| CC1=[N+]([O-])C(C(=O)Nc2cccc(F)c2F)C(c2cccc(C)c2)C1 (racemic) [Compound 15] | 100 | 100 | 100 | 100 | 0 | 30 | 0 | 0 | 0 | 90 | 0 | 50 | 90 | 90 | 0 | 30 | 60 | 90 | 80 | 90 | Galium plant response rating ([10]; 125 g ai/ha): 0; Galium plant response rating ([10]; 500 g ai/ha): 30; Kochia plant response rating (kochia (Kochia scoparia) [11]; 125 g ai/ha): 0; Kochia plant response rating (kochia (Kochia scoparia) [11]; 500 g ai/ha): 30; Pigweed plant response rating ([12]; 125 g ai/ha): 0; Pigweed plant response rating ([12]; 500 g ai/ha): 40; Ragweed plant response rating ([13]; 125 g ai/ha): 0; Ragweed plant response rating ([13]; 500 g ai/ha): 50; Ryegrass, Italian plant response rating ([14]; 125 g ai/ha): 30; Ryegrass, Italian plant response rating ([14]; 500 g ai/ha): 50; Wheat plant response rating ([15]; 125 g ai/ha): 40; Wheat plant response rating ([15]; 500 g ai/ha): 50; Ducksalad plant response rating (0 to 100 scale) [16]: 95; Barnyardgrass plant response rating (0 to 100 scale) [17]: 85; Rice plant response rating (0 to 100 scale) (rice (Oryza sativa)): 15 |
